Assay results: publication PMC6009968, “Through scaffold modification to 3,5-diaryl-4,5-dihydroisoxazoles: new potent and selective inhibitors of monoamine oxidase B” (Journal of Enzyme Inhibition and Medicinal Chemistry, 2017)
Read-outs that look alike come from different tables or passages of the source. Marks after values point to notes of the source that are not given here.

Columns and labels:
hMAO-A = biological target: T1, hMAO-A (Homo sapiens, UniProt P21397); assay: Inhibition of human recombinant MAO A (Amplex Red assay)
T1 sequence (P21397 1-527): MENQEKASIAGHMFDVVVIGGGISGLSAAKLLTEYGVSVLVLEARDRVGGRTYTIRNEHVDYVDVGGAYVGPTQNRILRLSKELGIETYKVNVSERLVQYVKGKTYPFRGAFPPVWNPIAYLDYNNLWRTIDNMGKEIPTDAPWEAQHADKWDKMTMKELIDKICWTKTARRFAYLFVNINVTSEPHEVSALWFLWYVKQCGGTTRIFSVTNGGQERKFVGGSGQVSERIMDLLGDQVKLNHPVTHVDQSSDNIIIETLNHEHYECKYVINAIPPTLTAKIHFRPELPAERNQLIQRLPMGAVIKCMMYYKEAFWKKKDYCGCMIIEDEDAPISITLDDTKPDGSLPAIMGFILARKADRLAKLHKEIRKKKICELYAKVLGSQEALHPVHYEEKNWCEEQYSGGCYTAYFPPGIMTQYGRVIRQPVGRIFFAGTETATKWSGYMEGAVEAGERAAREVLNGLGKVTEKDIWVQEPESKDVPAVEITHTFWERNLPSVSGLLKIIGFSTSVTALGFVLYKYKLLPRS

hMAO-B = biological target: T2, hMAO-B (Homo sapiens, UniProt P27338); assay: Inhibition of human recombinant MAO B (Amplex Red assay); settings: for Ratio: assumes the inactive isoform IC50 is the highest concentration tested (100 μM); for Ratio, selectivity ratios [IC50(MAO-A)]/[IC50(MAO-B)]: bounds assume IC50 against MAO-A is the highest concentration tested (100 μM)
T2 sequence (P27338 1-520): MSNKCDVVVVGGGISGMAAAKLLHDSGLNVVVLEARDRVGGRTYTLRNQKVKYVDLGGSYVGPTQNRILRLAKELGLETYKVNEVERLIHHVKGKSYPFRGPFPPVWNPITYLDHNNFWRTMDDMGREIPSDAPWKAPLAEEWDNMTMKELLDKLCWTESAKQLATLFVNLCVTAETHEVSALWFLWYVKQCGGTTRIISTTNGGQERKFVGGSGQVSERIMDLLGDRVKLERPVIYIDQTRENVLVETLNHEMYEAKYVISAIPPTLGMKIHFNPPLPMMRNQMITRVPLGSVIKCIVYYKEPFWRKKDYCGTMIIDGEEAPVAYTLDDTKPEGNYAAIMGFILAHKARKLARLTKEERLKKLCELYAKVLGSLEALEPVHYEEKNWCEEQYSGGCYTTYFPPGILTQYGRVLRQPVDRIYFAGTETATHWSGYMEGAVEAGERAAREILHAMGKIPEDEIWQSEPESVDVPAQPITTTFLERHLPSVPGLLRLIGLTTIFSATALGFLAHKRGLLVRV

[1] = read-out: MAO-A (IC50), Table 4, single enantiomers
[2] = read-out: MAO-B (IC50), Table 4, single enantiomers, mean ± SEM from five experiments
[3] = read-out: MAO-A (IC50), Table 3, highest concentration tested
[4] = read-out: MAO-B (IC50), Table 3, mean ± SEM from five experiments

Row | IC50 (hMAO-A; [1]) | Ratio (hMAO-B; Table 4, single enantiomers) | Ratio, selectivity ratios [IC50(MAO-A)]/[IC50(MAO-B)] (hMAO-B; Table 3) | SMILES | also measured
1 | > 100000 nM | 342.6 | – | COc1ccc([C@@H]2CC(c3ccc(C)cc3)=NO2)cc1 [S-(+) EMAC II m] | IC50 (hMAO-B; [2]): 292 ± 13.4 nM
2 | – | – | >222^d | COc1ccc(C2CC(c3ccc(C)cc3)=NO2)cc1 (racemic) [EMAC II m] | IC50 (hMAO-A; [3]): > 100000 nM; IC50 (hMAO-B; [4]): 450 ± 18 nM
3 | – | – | >2436^d | Cc1ccc(C2=NOC(c3ccc(C)cc3)C2)cc1 (racemic) [EMAC II j] | IC50 (hMAO-A; [3]): > 100000 nM; IC50 (hMAO-B; [4]): 41 ± 1.52 nM
4 | > 100000 nM | 792.6^b | – | COc1ccc([C@H]2CC(c3ccc(C)cc3)=NO2)cc1 [R-(−) EMAC II m] | IC50 (hMAO-B; [2]): 126 ± 8.44 nM
5 | > 100000 nM | 3188^b | – | Cc1ccc(C2=NO[C@H](c3ccc(C)cc3)C2)cc1 [S-(+) EMAC II j] | –
6 | – | – | >8354^d | Cc1ccc(C2=NOC(c3ccc(Cl)c(Cl)c3)C2)cc1 (racemic) [EMAC II l] | IC50 (hMAO-A; [3]): > 100000 nM; IC50 (hMAO-B; [4]): 12 ± 0.37 nM
7 | > 100000 nM | 333.5^b | – | Cc1ccc(C2=NO[C@@H](c3ccc(F)cc3)C2)cc1 [R-(−) EMAC II k] | IC50 (hMAO-B; [2]): 300 ± 12 nM
8 | > 100000 nM | 2956^b | – | Cc1ccc(C2=NO[C@H](c3ccc(F)cc3)C2)cc1 [S-(+) EMAC II k] | –
9 | > 100000 nM | – | – | Cc1ccc(C2=NO[C@H](c3ccc(Cl)cc3)C2)cc1 [S-(+) EMAC II i] | IC50 (hMAO-B; read-out: MAO-B (IC50), Table 4, single enantiomers): > 100000 nM
10 | – | – | >312^d | Cc1ccc(C2=NOC(c3ccc(F)cc3)C2)cc1 (racemic) [EMAC II k] | IC50 (hMAO-A; [3]): > 100000 nM; IC50 (hMAO-B; [4]): 320 ± 13.6 nM
11 | > 100000 nM | 39 216^b | – | Cc1ccc(C2=NO[C@@H](c3ccc(C)cc3)C2)cc1 [R-(−) EMAC II j] | IC50 (hMAO-B; [2]): 2.55 ± 0.11 nM
12 | – | 52 910^b | – | Cc1ccc(C2=NO[C@@H](c3ccc(Cl)c(Cl)c3)C2)cc1 [R-(−) EMAC II l] | IC50 (hMAO-A): > 100000 nM; selectivity towards MAO B, increase of the enantiomer versus the racemic mixture (hMAO-B): increased by more than six folds
13 | – | 9124 | – | Cc1ccc(C2=NO[C@H](c3ccc(Cl)c(Cl)c3)C2)cc1 [S-(+) EMAC II l] | IC50 (hMAO-A): > 100000 nM
14 | – | 6549^b | – | Cc1ccc(C2=NO[C@@H](c3ccc(Cl)cc3)C2)cc1 [R-(−) EMAC II i] | IC50 (hMAO-A): > 100000 nM; IC50 (hMAO-B): 15.3 ± 0.95 nM
15 | – | – | >961^d | Cc1ccc(C2=NOC(c3ccc(Cl)cc3)C2)cc1 (centres unmarked) [EMAC II i] | IC50 (hMAO-A): > 100000 nM; IC50 (hMAO-B): 104 ± 3.69 nM
